From patent publication US8519149B2, “Tricyclic compounds as mPGES-1 inhibitors” (Glenmark Pharmaceuticals S.A., priority 2010, dated 2013)

Biological target: T1, Recombinant human mPGES-1 (Homo sapiens, UniProt O14684)
T1 sequence (O14684 1-152): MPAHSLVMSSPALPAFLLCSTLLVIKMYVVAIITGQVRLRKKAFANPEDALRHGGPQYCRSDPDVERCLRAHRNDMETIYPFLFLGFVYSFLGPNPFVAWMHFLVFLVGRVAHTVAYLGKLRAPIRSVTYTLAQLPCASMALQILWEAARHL
Test: In-vitro mPGES-1 enzyme inhibition assay (PGE2 formation from PGH2, HTRF detection)
Assay type: biochemical
Conditions: for inhibition at 1 µM: 1 μM test compound, read-out: Percentage inhibition at 1 μM; for inhibition at 1 µM / inhibition at 10 µM: recombinant human mPGES-1 microsomal fraction; for inhibition at 10 µM: 10 μM test compound, read-out: Percentage inhibition at 10 μM; for IC50: class symbols, selected examples
From the text: In-Vitro Protocol for Screening of mPGES-1 Inhibitors: mPGES-1 (microsomal prostaglandin E synthase-1) is a microsomal enzyme that converts endoperoxide substrate PGH2 (prostaglandin H2) to product PGE2 (prostaglandin E2) by isomerization in the presence of reduced glutathione (GSH). mPGES-1 inhibitors were screened by assessing their ability to inhibit formation of PGE2 from PGH2 in presence of mPGES-1 using anti-PGE2 antibody based detection method. […] Assay was set up using crude microsomal fractions at protein concentration of 40-60 μg/mL. […] Final concentration of DMSO in reaction was 0.5% (v/v). Negative controls comprised of all assay reagents except the enzyme. Positive controls comprised of enzyme reaction in the absence of any inhibitor. […] Reaction was stopped by addition of Stannous chloride (11 mg/ml) and PGE2 levels were measured ([…] et al. […] Inhibition of mPGES-1 enzyme activity was measured using percent of reaction occurring in the positive control. Concentration response curves were plotted using percent inhibition of maximum enzyme reaction. IC50 value was calculated from concentration response curve by nonlinear regression analysis using GraphPad PRISM software.

inhibition at 1 µM [%] | inhibition at 10 µM [%] | IC50 [µM] | Compound
100 | 100 | < 0.05 | CC(C)CCNC(=O)c1cc2nc(Nc3c(Cl)cccc3Cl)[nH]c2c2c1OC(C)(C)C2 [Example-46, 2-[(2,6-Dichlorophenyl)amino]-7,7-dimethyl-N-(3-methylbutyl)-7,8-dihydro-1H-furo[3,2-e]benzimidazole-5-carboxamide]
88.7 | 94.6 | < 0.05 | Cc1cnc(NC(=O)c2cc3nc(Nc4c(Cl)cccc4Cl)[nH]c3c3c2OC(C)(C)C3)s1 [Example-40, 2-[(2,6-Dichlorophenyl)amino]-7,7-dimethyl-N-(5-methyl-1,3-thiazol-2-yl)-7,8-dihydro-1H-furo[3,2-e]benzimidazole-5-carboxamide]
98.8 | 99 | < 0.05 | CC1(C)Cc2c(c(C(=O)Nc3cc(C(F)(F)F)ccc3F)cc3nc(Nc4c(Cl)cncc4Cl)[nH]c23)O1 [Example-195, 2-((3,5-Dichloropyridin-4-yl)amino)-N-(2-fluoro-5-(trifluoromethyl)phenyl)-7,7-dimethyl-7,8-dihydro-1H-benzofuro[4,5-d]imidazole-5-carboxamide]
90.4 | 95.1 | < 0.05 | CC1(C)Cc2c(c(C(=O)Nc3ccc(N4CCCC4)nc3)cc3nc(Nc4c(Cl)cccc4Cl)[nH]c23)O1 [Example-96, 2-[(2,6-Dichlorophenyl)amino]-7,7-dimethyl-N-[6-(pyrrolidin-1-yl)pyridin-3-yl]-7,8-dihydro-1H-furo[3,2-e]benzimidazole-5-carboxamide]
97.5 | 93.1 | < 0.05 | Cc1nc2c(o1)c(C(=O)NCC1CCCCC1)cc1nc(Nc3c(Cl)cccc3Cl)[nH]c12 [Example-183, N-(Cyclohexylmethyl)-7-[(2,6-dichlorophenyl)amino]-2-methyl-8H-imidazo[4,5-e][1,3]benzoxazole-4-carboxamide]
93.1 | 89.9 | < 0.05 | CC1(C)Cc2c(c(C(=O)Nc3ccccc3C(F)(F)F)cc3nc(Nc4c(F)cccc4Cl)[nH]c23)O1 [Example-77, 2-[(2-Chloro-6-fluorophenyl)amino]-7,7-dimethyl-N-[2-(trifluoromethyl)phenyl]-7,8-dihydro-1H-furo[3,2-e]benzimidazole-5-carboxamide]
97.7 | 99.6 |  | CC1(C)Cc2c(c(C(=O)Nc3ccc(C(F)(F)F)nc3)cc3nc(Nc4c(Cl)cccc4Cl)[nH]c23)O1 [Example-166, 2-((2,6-Dichlorophenyl)amino)-7,7-dimethyl-N-(6-(trifluoromethyl)pyridin-3-yl)-7,8-dihydro-1H-benzofuro[4,5-d]imidazole-5-carboxamide]
83 | 83.1 | < 0.05 | CCCCCNC(=O)c1cc2nc(Nc3c(Cl)cccc3Cl)[nH]c2c2c1OC(C)(C)C2 [Example-9, 2-[(2,6-Dichlorophenyl)amino]-7,7-dimethyl-N-pentyl-7,8-dihydro-1H-furo[3,2-e]benzimidazole-5-carboxamide]
99.4 | 99.1 | < 0.05 | CC1(C)Cc2c(c(C(=O)Nc3ccc(C(C)(C)C)cc3)cc3nc(Nc4c(F)cccc4Cl)[nH]c23)O1 [Example-114, N-(4-tert-Butylphenyl)-2-[(2-chloro-6-fluorophenyl)amino]-7,7-dimethyl-7,8-dihydro-1H-furo[3,2-e]benzimidazole-5-carboxamide]
96.4 | 94.7 | < 0.05 | CC1(C)Cc2c(c(C(=O)Nc3cc(F)c(F)cc3F)cc3nc(Nc4c(F)cccc4Cl)[nH]c23)O1 [Example-193, 2-((2-Chloro-6-fluorophenyl)amino)-7,7-dimethyl-N-(2,4,5-trifluorophenyl)-7,8-dihydro-1H-benzofuro[4,5-d]imidazole-5-carboxamide]
99.1 | 99.5 | < 0.05 | CCCCCCNC(=O)c1cc2nc(Nc3c(Cl)cncc3Cl)[nH]c2c2c1OC(C)(C)C2 [Example-3, 2-[(3,5-Dichloropyridin-4-yl)amino]-N-hexyl-7,7-dimethyl-7,8-dihydro-1H-furo[3,2-e]benzimidazole-5-carboxamide]
95.1 | 98.8 | < 0.05 | CC1(C)Cc2c(c(C(=O)Nc3ccc(F)c(F)c3F)cc3nc(Nc4c(Cl)cncc4Cl)[nH]c23)O1 [Example-212, 2-((3,5-Dichloropyridin-4-yl)amino)-7,7-dimethyl-N-(2,3,4-trifluorophenyl)-7,8-dihydro-1H-benzofuro[4,5-d]imidazole-5-carboxamide]
92.5 | 97.7 | < 0.05 | CC1(C)Cc2c(c(C(=O)Nc3cccc(C(F)(F)F)c3F)cc3nc(Nc4c(F)cccc4Cl)[nH]c23)O1 [Example-168, 2-((2-Chloro-6-fluorophenyl)amino)-N-(2-fluoro-3-(trifluoromethyl)phenyl)-7,7-dimethyl-7,8-dihydro-1H-benzofuro[4,5-d]imidazole-5-carboxamide]
91.8 | 94.2 | > 0.1 | Cc1nc(NC(=O)c2cc3nc(Nc4c(F)cccc4Cl)[nH]c3c3c2OC(C)(C)C3)sc1C [Example-55, 2-[(2-Chloro-6-fluorophenyl)amino]-N-(4,5-dimethyl-1,3-thiazol-2-yl)-7,7-dimethyl-7,8-dihydro-1H-furo[3,2-e]benzimidazole-5-carboxamide]
97.5 | 95.5 | < 0.05 | CC1(C)Cc2c(c(C(=O)Nc3ccc(Cl)cc3)cc3nc(Nc4c(Cl)cncc4Cl)[nH]c23)O1 [Example-15, N-(4-Chlorophenyl)-2-[(3,5-dichloropyridin-4-yl)amino]-7,7-dimethyl-7,8-dihydro-1H-furo[3,2-e]benzimidazole-5-carboxamide]
94.4 | 95 | < 0.05 | CCCCCNC(=O)c1cc2nc(Nc3c(Cl)cncc3Cl)[nH]c2c2c1OC(C)(C)C2 [Example-4, 2-[(3,5-Dichloropyridin-4-yl)amino]-7,7-dimethyl-N-pentyl-7,8-dihydro-1H-furo[3,2-e]benzimidazole-5-carboxamide]
96.6 | 97.7 | < 0.05 | CC1(C)Cc2c(c(C(=O)Nc3ncc(Cl)cc3F)cc3nc(Nc4c(F)cccc4Cl)[nH]c23)O1 [Example-126, N-(5-Chloro-3-fluoropyridin-2-yl)-2-((2-chloro-6-fluorophenyl)amino)-7,7-dimethyl-7,8-dihydro-1H-benzofuro[4,5-d]imidazole-5-carboxamide]
96.3 | 97.3 |  | Cn1c(Nc2c(Cl)cncc2Cl)nc2cc(C(=O)Nc3ccc(F)c(C(F)(F)F)c3)c3c(c21)CC(C)(C)O3 [Example-213, 2-((3,5-Dichloropyridin-4-yl)amino)-N-(4-fluoro-3-(trifluoromethyl)phenyl)-1,7,7-trimethyl-7,8-dihydro-1H-benzofuro[4,5-d]imidazole-5-carboxamide]
10.5 | 44.9 |  | CC1(C)Cc2c(c(C(=O)N3CCOCC3)cc3nc(Nc4c(Cl)cncc4Cl)[nH]c23)O1 [Example-20, {2-[(3,5-Dichloropyridin-4-yl)amino]-7,7-dimethyl-7,8-dihydro-1H-furo[3,2-e]benzimidazol-5-yl}(morpholin-4-yl)methanone]
95.1 | 100 | < 0.05 | Cc1cccc(Cl)c1Nc1nc2cc(C(=O)Nc3ccc(F)c(F)c3F)c3c(c2[nH]1)CC(C)(C)O3 [Example-202, 2-((2-Chloro-6-methylphenyl)amino)-7,7-dimethyl-N-(2,3,4-trifluorophenyl)-7,8-dihydro-1H-benzofuro[4,5-d]imidazole-5-carboxamide]
96.3 | 94.1 |  | Cn1c(Nc2c(Cl)cncc2Cl)nc2cc(C(=O)Nc3ccc(C(F)(F)F)cc3)c3c(c21)CC(C)(C)O3 [Example-215, 2-((3,5-dichloropyridin-4-yl)amino)-1,7,7-trimethyl-N-(4-(trifluoromethyl)phenyl)-7,8-dihydro-1H-benzofuro[4,5-d]imidazole-5-carboxamide]
95.8 | 83 | < 0.05 | Cc1nc2c(o1)c(C(=O)Nc1ccc(F)c(C(F)(F)F)c1)cc1nc(Nc3c(F)cccc3Cl)[nH]c12 [Example-187, 7-((2-Chloro-6-fluorophenyl)amino)-N-(4-fluoro-3-(trifluoromethyl)phenyl)-2-methyl-8H-imidazo[4′,5′:5,6]benzo[1,2-d]oxazole-4-carboxamide]
74.6 | 96.8 |  | Cc1cccc(Cl)c1Nc1nc2cc(C(=O)NCc3ccc(F)cc3C(F)(F)F)c3c(c2[nH]1)CC(C)(C)O3 [Example-130, 2-((2-Chloro-6-methylphenyl)amino)-N-(4-fluoro-2-(trifluoromethyl)benzyl)-7,7-dimethyl-7,8-dihydro-1H-benzofuro[4,5-d]imidazole-5-carboxamide]
